Laboratory results from patent publication US6548494B1, “Tricyclic inhibitors of poly(ADP-ribose) polymerases” (Agouron Pharmaceuticals, Inc., priority 1999, dated 2003).
Several values for one entry are separate records, joined by “and”; a condition that tells them apart may be missing. Equal entries are not always repeated. Where two headings read alike, the source gives them in different places.

Key:
purified PARP protein = purified PARP protein (Homo sapiens, UniProt P09874); experiment: PARP enzyme inhibition assay; format: biochemical; conditions: 20 nM purified PARP (5 nM for tight-binding inhibitors), 500 μM NAD+, 25° C., several values in one cell = repeat determinations
[1] = read-out: Inhibition Constant Ki

purified PARP protein, sequence (P09874 whole entry): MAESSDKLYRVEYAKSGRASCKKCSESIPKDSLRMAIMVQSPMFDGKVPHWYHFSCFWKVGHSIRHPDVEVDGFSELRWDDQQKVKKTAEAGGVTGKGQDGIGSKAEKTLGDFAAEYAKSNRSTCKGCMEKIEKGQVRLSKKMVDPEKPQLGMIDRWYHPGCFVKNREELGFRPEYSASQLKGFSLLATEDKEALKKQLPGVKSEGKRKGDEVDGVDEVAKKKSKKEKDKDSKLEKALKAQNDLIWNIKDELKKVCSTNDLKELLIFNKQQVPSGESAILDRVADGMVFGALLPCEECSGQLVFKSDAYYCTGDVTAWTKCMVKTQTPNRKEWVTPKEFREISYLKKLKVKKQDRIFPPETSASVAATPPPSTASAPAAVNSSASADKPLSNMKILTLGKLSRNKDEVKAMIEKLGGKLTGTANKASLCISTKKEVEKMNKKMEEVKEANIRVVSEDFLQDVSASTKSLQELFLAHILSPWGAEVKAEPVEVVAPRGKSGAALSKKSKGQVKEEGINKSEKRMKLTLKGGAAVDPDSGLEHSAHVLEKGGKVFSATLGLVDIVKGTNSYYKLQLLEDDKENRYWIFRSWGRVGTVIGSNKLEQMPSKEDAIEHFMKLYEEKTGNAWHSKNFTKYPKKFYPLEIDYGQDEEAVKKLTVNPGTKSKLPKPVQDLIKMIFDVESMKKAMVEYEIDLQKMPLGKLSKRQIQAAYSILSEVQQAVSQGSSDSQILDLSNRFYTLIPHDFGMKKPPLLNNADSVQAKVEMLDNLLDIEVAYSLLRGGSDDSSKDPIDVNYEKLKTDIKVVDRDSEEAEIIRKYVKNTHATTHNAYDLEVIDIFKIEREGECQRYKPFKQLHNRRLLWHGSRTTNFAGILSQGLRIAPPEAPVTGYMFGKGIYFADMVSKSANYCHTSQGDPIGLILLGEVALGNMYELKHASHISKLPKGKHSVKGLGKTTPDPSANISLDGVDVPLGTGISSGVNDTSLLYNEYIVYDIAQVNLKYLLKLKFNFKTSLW

SMILES	melting point	Ki (purified PARP protein; [1])	Ki (purified PARP protein; Inhibition Constant Ki (nM)) [nM]
CC(=O)c1c(-c2ccc(F)cc2)n2c3c(cccc13)C(=O)NCC2 [Example 93, 7-Acetyl-6-(4-fluoro-phenyl)-3,4-dihydro-2H-[1,4]diazepino[6,7,1-hi]indol-1-one]	275 to 276 °C		306
O=C1NCCn2c(-c3nccs3)nc3cccc1c32 [Example 94, 1-(Thiazol-2-yl)-8,9-dihydro-7H-2,7,9a-triaza-benzo[cd]azulen-6-one]	271 to 276 °C	4.3 nM	
O=C1NCCn2c(-c3ccc[nH]3)nc3cccc1c32 [Example 95, 1-(1H-Pyrrol-2-yl)-8,9-dihydro-7H-2,7,9a-triaza-benzo[cd]azulen-6-one]	327 to 332 °C (dec.)	6.2 nM	
O=C1NCCn2c(-c3ccc(CO)cc3)nc3cc(F)cc1c32 [Example 97, 4-Fluoro-1-(hydroxymethyl-phenyl)-8,9-dihydro-7H-2,7,9a-triaza-benzo[cd]azulen-6-one]	273 to 275 °C	1.6 nM	
CCOCCNCc1ccc(-c2nc3cccc4c3n2CCNC4=O)cc1 [Example 100, 1-{4-[(2-Ethoxyethylamino)-methyl]-phenyl}-8,9-dihydro-7H-2,7,9a-triaza-benzo[cd]azulen-6-one]	138 to 140 °C	2.7 nM	
O=C1NCCn2c(-c3ccc(CNCC(F)(F)F)cc3)nc3cccc1c32 [Example 103, 1-4-[(2,2,2-Trifluoro-ethylamino)-methyl]-phenyl-8,9-dihydro-7H-2,7,9a-triaza-benzo[cd]azulen-6-one]	221 to 223 °C	6.2 nM	
O=C1NCCn2c(-c3ccc(CN4CCSCC4)cc3)nc3cccc1c32 [Example 105, 1-(4-Thiomorpholin-4-ylmethyl-phenyl)-8,9-dihydro-7H-2,7,9a-triaza-benzo[cd]azulen-6-one]	266 °C (dec.)	6.2 nM	
O=C1NCCn2c(C(=O)NCc3ccccc3)nc3cccc1c32 [Example 110, 6-Oxo-6,7,8,9-tetrahydro-2,7,9a-triaza-benzo[cd]azulen-1-carboxylic Acid Benzylamide]	247 to 250 °C	18 nM	
N#CCCNCc1ccc(-c2nc3cccc4c3n2CCNC4=O)cc1 [Example 111, 3-[4-(6-Oxo-6,7,8,9-tetrahydro-2,7,9a-triaza-benzo[cd]azulen-1-yl)-benzylamino]-propionitrile]	208 to 214 °C	5.1 nM	
O=C1NCCn2c(C(F)(F)F)nc3cccc1c32 [Example 112, 1-Trifluoromethyl-8,9-dihydro-7H-2,7,9a-triaza-benzo[cd]azulen-6-one]	277 to 281 °C (dec.)	18 nM	
O=C1NCCn2c(C(=O)N3CCOCC3)nc3cccc1c32 [Example 113, 1-(Mompholine-4-carbonyl)-8,9-dihydro-7H-2,7,9a-triaza-benzo[cd]azulen-6-one]	271 to 274 °C (dec.)	24 nM	
O=C1NCCn2c(-c3ccc(=O)n(Cc4ccccc4)c3)nc3cccc1c32 [Example 114, 1-(1-Benzyl-6-oxo-1,6-dihydro-pyridin-3-yl)-8,9-dihydro-7H-2,7,9a-triaza-benzo[cd]azulen-6-one]	265 to 269 °C (dec.)	9.9 nM	
CN1CCN(C(=O)c2nc3cccc4c3n2CCNC4=O)CC1 [Example 115, 1-(4-Methyl-piperazine-1-carbonyl)-8,9-dihydro-7H-2,7,9a-triaza-benzo[cd]azulen-6-one]	311 to 316 °C (dec.)	116 nM	
NC(=O)c1ccc(Oc2ccc(-c3nc4cccc5c4n3CCNC5=O)cn2)cc1 [Example 116, 4-[5-(6-Oxo-6,7,8,9-tetrahydro-2,7,9a-triaza-benzo[cd]azulen-1-yl)-pyridin-2-yloxy]-benzamide]	244 to 248 °C (dec.)	5.2 nM	
O=C1NCCn2c(C34CC5CC(CC(C5)C3)C4)nc3cccc1c32 [Example 117, 1-Tricyclo[3.3.1.1]dec-1-yl-8,9-dihydro-7H-2,7,9a-triaza-benzo[cd]azulene-6-one]	304 to 306 °C	9.5 nM	
O=C1NCCn2c(-c3ccc(CN4CC[S+]([O-])CC4)cc3)nc3cccc1c32 [Example 122, 1-[4-(Oxo-1λ^4-thiomorpholin-4-ylmethyl)-phenyl]-8,9-dihydro-7H-2,7,9a-triaza-benzo[cd]azulen-6-one]	247 °C (dec.)	7 nM	
O=C1NCCn2c(-c3ccc(OCCN4CCCC4)cc3)nc3cccc1c32 [Example 123, 1-[4-(2-Pyrrolidin-1-yl-ethoxy)-phenyl]-8,9-dihydro-7H-2,7,9a-triaza-benzo[cd]azulen-6-one]	172 to 175 °C	9 nM	
CN(C)CCOc1ccc(-c2nc3cccc4c3n2CCNC4=O)cc1 [Example 124, 1-[4-(2-Dimethylamino-ethoxy)-phenyl]-8,9-dihydro-7H-2,7,9a-triaza-benzo[cd]azulen-6-one]	184 to 186 °C	8 nM	
O=C1NCCn2c(-c3ccc(CCOC4CCCCO4)cc3)nc3cccc1c32 (stereo not drawn) [Example 125, 1-{4-[2-(Tetrahydro-pyran-2-yloxy)-ethyl]-phenyl}-8,9-dihydro-7H-2,7,9a-triaza-benzo[cd]azulen-6-one]	189 to 190 °C	11 nM	
CSc1nc2cccc3c2n1CCNC3=O [Example 138, 1-Methylsulfanyl-8,9-dihydro-7H-2,7,9a-triaza-benzo[cd]azulen-6-one]	223 to 225 °C	11 nM	
C[S+]([O-])c1nc2cccc3c2n1CCNC3=O (stereo not drawn) [Example 139, 1-Methanesulfinyl-8,9-dihydro-7H-2,7,9a-triaza-benzo[cd]azulen-6-one]	241 to 242 °C (dec.)	12 nM	
CS(=O)(=O)c1nc2cccc3c2n1CCNC3=O [Example 140, 1-Methanesulfonyl-8,9-dihydro-7H-2,7,9a-triaza-benzo[cd]azulen-6-one]	> 190 °C (dec.)	6.8 nM	
CN1CCCC(c2ccc(-c3nc4cccc5c4n3CCNC5=O)cc2)C1 (stereo not drawn) [Example 144, 1-[4-(Methyl-piperidin-3-yl)-phenyl]-8,9-dihydro-7H-2,7,9a-triaza-benzo[cd]azulen-6-one]	240 to 242 °C	7.4 nM	
O=C1NCCn2c(NCc3ccccc3)nc3cccc1c32 [Example 145, 1-Benzylamino-8,9-dihydro-7H-2,7,9a-triaza-benzo[cd]azulen-6-one]	186 °C (dec.)	20 nM	

Further lines, with some results ahead:

melting point	Ki (purified PARP protein; [1])	SMILES	Ki (purified PARP protein; Inhibition Constant Ki (nM)) [nM]
198 to 202 °C (dec.)	5.6 nM	N#CCNCc1ccc(-c2nc3cccc4c3n2CCNC4=O)cc1 [Example 102, [4-(6-Oxo-6,7,8,9-tetrahydro-2,7,9a-triaza-benzo[cd]azulen-1-yl)-benzylamino]-acetonitrile]	
126 °C (dec.)	4.5 nM	C#CCNCc1ccc(-c2nc3cccc4c3n2CCNC4=O)cc1 [Example 104, 1-(4-Prop-2-ynylaminomethyl-phenyl)-8,9-dihydro-7H-2,7,9a-triaza-benzo[cd]azulen-6-one]	
308 to 313 °C	8 nM	Cc1ccc(-c2nc(-c3nc4cccc5c4n3CCNC5=O)cs2)cc1 [Example 106, 1-(2-p-Tolyl-thiazol-4-yl)-8,9-dihydro-7H-2,7,9a-triaza-benzo[cd]azulen-6-one]	
297 to 301 °C (dec.)	25 nM	Cc1ccc(-c2onc3ccc(-c4nc5cccc6c5n4CCNC6=O)cc23)cc1 [Example 107, 1-(3-p-Tolyl-benzo[c]isoxazol-5-yl)-8,9-dihydro-7H-2,7,9a-triaza-benzo[cd]azulen-6-one]	
280 to 284 °C (dec.)	6 nM	O=C1NCCn2c(-c3ccc(Sc4ccc(Cl)cc4)nc3)nc3cccc1c32 [Example 108, 1-[6-(4-Chloro-phenylsulfanyl)-pyridin-3-yl]-8,9-dihydro-7H-2,7,9a-triaza-benzo[cd]azulen-6-one]	
281 to 288 °C (dec.)	5.5 nM	N#Cc1ccc(Oc2ccc(-c3nc4cccc5c4n3CCNC5=O)cn2)cc1 [Example 109, 4-[5-(6-Oxo-6,7,8,9-tetrahydro-2,7,9a-triaza-benzo[cd]azulen-1-yl)-pyridin-2-yloxy]-benzonitrile]	
> 280 °C (dec.)	4.4 nM	O=C1NCCn2c(-c3ccc(Cl)nc3)nc3cccc1c32 [Example 118, 1-(6-Chloro-pyridin-3-yl)-8,9-dihydro-7H-2,7,9a-triaza-benzo[cd]azulen-6-one]	
253 to 254 °C (dec.)	7.3 nM	O=C1NCCn2c(-c3ccc(OCCO)cc3)nc3cccc1c32 [Example 120, 1-[4-(2-Hydroxy-ethoxy)-phenyl]-8,9-dihydro-7H-2,7,9a-triaza-benzo[cd]azulen-6-one]	
263 to 265 °C	3.5 nM and 3.6 nM	O=C1NCCn2c(-c3ccc(CCO)cc3)nc3cccc1c32 [Example 127, 1-[4-(2-Hydroxy-ethyl)-phenyl]-8,9-dihydro-7H-2,7,9a-triaza-benzo[cd]azulen-6-one]	
280 °C (dec.)	6.9 nM	Cn1nnc(-c2ccc(-c3nc4cccc5c4n3CCNC5=O)cc2)n1 [Example 133, 1-[4-(2-Methyl-2H-tetrazol-5-yl)-phenyl]-8,9-dihydro-7H-2,7,9a-triaza-benzo[cd]azulen-6-one]	
370 to 372 °C (dec.)	3.8 nM	O=C1NCCn2c(-c3ccc(-c4ccncc4)cc3)nc3cccc1c32 [Example 135, 1-(4-Pyridin-4-yl-phenyl)-8,9-dihydro-7H-2,7,9a-triaza-benzo[cd]azulen-6-one]	
> 290 °C (dec.)	96 nM	O=C1NCCn2c(-c3ccc(-c4nn[nH]n4)cc3)nc3cccc1c32 [Example 136, 1-[4-(2H-Tetrazol-5-yl)-phenyl]-8,9-dihydro-7H-2,7,9a-triaza-benzo[cd]azulen-6-one]	
